Broadly, the IC50 is the concentration that gives 50% inhibition. A high value points to lower potency. One may read the bioavailability as the share of a dose that reaches the circulation, judged against a reference dose that is usually intravenous. Low values mean little systemic uptake, high ones much systemic uptake. As a reminder, the half-life is the time needed for the level to fall by half in the phase considered. High values mean slow loss, low ones fast loss. The term clearance denotes a measure of how efficiently the substance is removed, as volume per time.

These results are taken from ChEMBL document CHEMBL4052776, “Discovery of 3-morpholino-imidazole[1,5-a]pyrazine BTK inhibitors for rheumatoid arthritis” (Bioorg Med Chem Lett, 2017).

In series [1] the target is Voltage-gated inwardly rectifying potassium channel KCNH2 (Homo sapiens, UniProt Q12809). Put plainly: Inhibition of human ERG by [35S]-MK499 displacement or iKr channel assay.
Series [2] is described as follows: Oral bioavailability in dog at 2 mg/kg. Format: ADME, organism-based, Canis lupus familiaris. To be noted: in vivo.
A short description of series [3]: Half life in dog at 2 mg/kg. Format: ADME, organism-based, Canis lupus familiaris. The following applies: in vivo.
Series [4] can be described thus: Half life in rat at 10 mg/kg. Type of series: ADME, organism-based. The following applies: in vivo.
Series [5] can be described thus: Oral bioavailability in rat at 10 mg/kg. Format: ADME, organism-based. To be noted: in vivo.
Series [6] in a line: Total clearance in rat plasma at 10 mg/kg. Format: ADME, organism-based.
Series [7] in a line: Total clearance in dog plasma at 2 mg/kg. Type of series: ADME, organism-based, Canis lupus familiaris.

Voltage-gated inwardly rectifying potassium channel KCNH2, sequence (Q12809 whole entry): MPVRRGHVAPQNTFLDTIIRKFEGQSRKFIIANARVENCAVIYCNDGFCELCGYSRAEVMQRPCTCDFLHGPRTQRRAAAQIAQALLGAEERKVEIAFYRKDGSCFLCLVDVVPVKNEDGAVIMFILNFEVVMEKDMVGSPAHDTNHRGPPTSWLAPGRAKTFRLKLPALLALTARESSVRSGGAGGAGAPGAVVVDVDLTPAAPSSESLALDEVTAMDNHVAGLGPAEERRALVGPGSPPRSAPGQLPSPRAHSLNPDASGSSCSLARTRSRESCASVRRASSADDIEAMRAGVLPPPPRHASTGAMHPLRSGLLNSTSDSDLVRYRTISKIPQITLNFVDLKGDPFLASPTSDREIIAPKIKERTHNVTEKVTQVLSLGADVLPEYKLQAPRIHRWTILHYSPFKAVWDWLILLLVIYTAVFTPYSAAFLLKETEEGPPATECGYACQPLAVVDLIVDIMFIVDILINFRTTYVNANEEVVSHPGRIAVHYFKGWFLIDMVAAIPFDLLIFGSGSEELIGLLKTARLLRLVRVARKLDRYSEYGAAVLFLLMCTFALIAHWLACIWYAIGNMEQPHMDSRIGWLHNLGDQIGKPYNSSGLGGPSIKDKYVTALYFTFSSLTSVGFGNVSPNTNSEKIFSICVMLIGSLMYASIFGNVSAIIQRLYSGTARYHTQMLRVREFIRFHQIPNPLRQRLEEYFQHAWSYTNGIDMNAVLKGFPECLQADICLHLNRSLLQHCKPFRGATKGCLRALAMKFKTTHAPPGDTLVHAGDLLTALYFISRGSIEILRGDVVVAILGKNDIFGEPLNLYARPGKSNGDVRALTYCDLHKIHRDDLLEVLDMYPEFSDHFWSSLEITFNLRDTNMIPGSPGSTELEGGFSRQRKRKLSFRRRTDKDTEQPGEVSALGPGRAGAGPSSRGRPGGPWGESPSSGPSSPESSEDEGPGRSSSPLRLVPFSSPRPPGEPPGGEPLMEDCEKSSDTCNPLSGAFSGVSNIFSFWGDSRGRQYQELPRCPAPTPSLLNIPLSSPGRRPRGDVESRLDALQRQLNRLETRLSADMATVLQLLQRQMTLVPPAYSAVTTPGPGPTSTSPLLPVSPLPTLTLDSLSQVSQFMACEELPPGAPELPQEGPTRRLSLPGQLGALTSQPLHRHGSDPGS

In series [1], `COCCC(=O)N1CCSC(c2nc(-c3ccc(C(=O)Nc4cc(C(F)(F)F)ccn4)cc3)c3c(N)nccn23)C1` (stereo not given) had a concentration for half-maximal inhibition (IC50) of 1.8 µM.

Turning to `COCCC(=O)N1CCO[C@@H](c2nc(-c3ccc(C(=O)Nc4cc(C(F)(F)F)ccn4)cc3)c3c(N)nccn23)C1`, the concentration for half-maximal inhibition (IC50) in series [1] stood at 5.8 µM.

The molecule `CC1(C(=O)N2CC(c3nc(-c4ccc(C(=O)Nc5cc(C(F)(F)F)ccn5)cc4)c4c(N)nccn34)C2)COC1` came in with a concentration for half-maximal inhibition (IC50) in series [1] of 0.4 µM. Compared with the last molecule, the IC50 is about 14-fold lower.

In series [1], `CC1(C(=O)N2CCO[C@@H](c3nc(-c4ccc(C(=O)Nc5cc(C(F)(F)F)ccn5)cc4)c4c(N)nccn34)C2)COC1` had an IC50 of 14.4 µM.

Consider `C[C@H]1CO[C@@H](c2nc(-c3ccc(C(=O)Nc4cc(C(F)(F)F)ccn4)cc3F)c3c(N)nccn23)CN1C(=O)C1CC1`, for which the bioavailability in series [2] turned out to be 88%; in series [5] it was 40%. Moreover, the half-life is 8.8 h in series [3] and 3.9 h in series [4]. Moreover, the clearance was 4.2 mL/min/kg in series [6] and 1.6 mL/min/kg in series [7].
